In US20250034134A1, “15-PGDH INHIBITOR AND USE THEREOF” (Wuhan Humanwell Innovative Drug Research and Development …, priority 2021, published 2025):
pIC50: −log10 of the molar value.

Assays:
15-PGDH = 15-PGDH (Homo sapiens (Human), UniProt P15428); test: Inhibition test of compounds on 15-PGDH enzyme; format: biochemical
Procedure: 15-PGDH (R&D Systems, Cat. No.: 5660-DH-010) was prepared to twice the final concentration, i.e., 30 nM, using Assay Buffer (50 mM Tris-HCl, pH 7.5, 0.01vol % Tween 20). The obtained mixture was then added to a 384-well white plate (Cisbio Bioassays, Cat. No. 66PL384025) at 8 μL/well. Negative control wells (with Assay Buffer only and without enzyme) were set. The compound was then prepared to 4 times the final concentration using Assay Buffer, i.e., diluted 3-fold to 10 concentrations starting from 4000 nM. The obtained mixture was added to the above white plate at 4 μL/well, mixed well, centrifuged at 1000 rpm for 1 minute, and incubated at 25° C. for 10 minutes. Both positive control wells (with 15-PGDH only) and negative control wells (without 15-PGDH) were set. A mixture of NAD^+(Select, Cat. No. S2518) and PGE2 (R&D Systems, Cat. No.: 2296/10) was then prepared using Assay Buffer. NAD^+ and PGE2 were prepared to four times their final concentrations, i.e., 2 mM and 0.12 mM, respectively, using Assay Buffer. The obtained mixture was then added to the above white plate at 4 μL/well, mixed well, centrifuged at 1000 rpm for 1 minute, and incubated at 25° C. for 30 minutes for the reaction. The fluorescence was detected at an excitation wavelength of 340 nm and an emission wavelength of 485 nm using instrument TECAN SPARK 20M. The IC50 value was calculated using four-parameter fitting with GraphPad Prism 8.0.

A549 cells = test: Effect of compounds on PGE2 levels in A549 cell supernatant; format: cell-based; settings: 20 nM compound, about 12 hours, after IL-10 stimulation; ELISA
Procedure: A549 cells (Procell, Wuhan) were cultured in F12K+10% FBS. The cells with good status in log phase were selected for the experiment, digested, counted, and inoculated into a 24-well plate at 8000 cells per well. The cells were cultured in a 37° C., 5% CO2 incubator overnight. After adherence, the cells were transferred to a culture medium containing 0.5% FBS and cultured for about 10 hours. IL-10 was added to each well (final concentration of 20 ng/mL, 1 mL per well), and a control group (without IL-10) was set up. After stimulation with IL-10 for about 24 hours, the cell culture medium of each well was aspirated and discarded, and the wells were gently washed with fresh culture medium containing 0.5% FBS. 400 μL of culture medium containing the compound of different concentrations (20 nM and 2500 nM) was added to each well and cultured for about 12 hours. The supernatant was collected and PGE2 was detected using ELISA kit (R&D Systems, Cat. No.: KGE004B).

15-PGDH, sequence (P15428 whole entry): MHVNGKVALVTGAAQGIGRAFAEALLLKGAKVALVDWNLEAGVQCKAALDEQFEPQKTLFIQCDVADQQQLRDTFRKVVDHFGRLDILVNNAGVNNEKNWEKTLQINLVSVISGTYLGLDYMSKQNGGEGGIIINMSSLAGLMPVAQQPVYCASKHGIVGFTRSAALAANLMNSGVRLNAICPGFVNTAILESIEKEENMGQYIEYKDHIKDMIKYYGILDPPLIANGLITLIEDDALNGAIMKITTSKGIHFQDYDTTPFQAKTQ

SMILES | pIC50 (15-PGDH) | Fold increase of PGE2 in A549 cell supernatant (A549 cells)
Cn1ccc2cc(N3CC4CC4c4cc(C(=O)N5CCC(F)(F)CC5)cnc43)ccc2c1=O (single isomer, unassigned) [Compound I-12A] | 8.82 | –
Cn1ccc2cc(N3CC4CC4c4cc(C(=O)N5CCC(F)(F)CC5)cnc43)ccc2c1=O (single isomer, unassigned) [Compound I-12B] | 8.13 | –
[2H]C([2H])([2H])n1nc2cc(N3CC4CC4c4cc(C(=O)N5CCC(F)(F)CC5)cnc43)ccn2c1=O (single isomer, unassigned) [Compound I-25A] | 7.80 | –
[2H]C([2H])([2H])n1nc2cc(N3CC4CC4c4cc(C(=O)N5CCC(F)(F)CC5)cnc43)ccn2c1=O (single isomer, unassigned) [Compound I-25B] | 8.42 | –
CN1Cc2cc(N3CC4CC4c4cc(C(=O)N5CCC(F)(F)CC5)cnc43)ccc2C1=O (stereo not shown) [Compound I-1, 5-(6-(4,4-difluoropiperidine-1-carbonyl)-1,1a,2,7b-tetrahydro-3H-cyclopropa[c][1,8]naphthyridin-3-yl)-2-methylisoindolin-1-one] | 8.37 | 4.3
CN1Cc2cc(N3CC4CC4c4cc(C(=O)N5CCC(F)(F)CC5)cnc43)cnc2C1=O (stereo not shown) [Compound I-2, 3-(6-(4,4-difluoropiperidine-1-carbonyl)-1,1a,2,7b-tetrahydro-3H-cyclopropa[c][1,8]naphthyridin-3-yl)-6-methyl-5,6-dihydro-7H-pyrrolo[3,4-b]pyridin-7-one] | 8.29 | 5.23
CNC(=O)c1ccc(N2CC3CC3c3cc(C(=O)N4CCC(F)(F)CC4)cnc32)cc1F (stereo not shown) [Compound I-9, 4-(6-(4,4-difluoropiperidine-1-carbonyl)-1,1a,2,7b-tetrahydro-3H-cyclopropa[c][1,8]naphthyridin-3-yl)-2-fluoro-N-methylbenzamide] | 8.02 | –
N#Cc1ccc(N2CC3CC3c3cc(C(=O)N4CCC(F)(F)CC4)cnc32)cc1 (stereo not shown) [Compound I-11, 4-(6-(4,4-difluoropiperidine-1-carbonyl)-1,1a,2,7b-tetrahydro-3H-cyclopropa[c][1,8]naphthyridin-3-yl)benzonitrile] | 8.42 | 1.88
Cn1ncc2cc(N3CC4CC4c4cc(C(=O)N5CCC(F)(F)CC5)ccc43)ccc2c1=O (stereo not shown) [Compound I-13, 6-(6-(4,4-difluoropiperidine-1-carbonyl)-1,1a,2,7b-tetrahydro-3H-cyclopropa[c]quinolin-3-yl)-2-methylphthalazin-1(2H)-one] | 8.39 | 6.1
Cn1ncc2cc(N3CC4CC4c4cc(C(=O)N5CCC(F)(F)CC5)ccc43)cnc2c1=O (stereo not shown) [Compound I-14, 3-(6-(4,4-difluoropiperidine-1-carbonyl)-1,1a,2,7b-tetrahydro-3H-cyclopropa[c]quinolin-3-yl)-7-methylpyrido[2,3-d]pyridazin-8(7H)-one] | 8.07 | 2.3
Cn1cnc2cc(N3CC4CC4c4cc(C(=O)N5CCC(F)(F)CC5)ccc43)cnc2c1=O (stereo not shown) [Compound I-15, 7-(6-(4,4-difluoropiperidine-1-carbonyl)-1,1a,2,7b-tetrahydro-3H-cyclopropa[c]quinolin-3-yl)-3-methylpyrido[3,2-d]pyrimidin-4(3H)-one] | 8.24 | 3.7
O=C(c1cnc2c(c1)C1CC1CN2c1ccn2ncnc2c1)N1CCC(F)(F)CC1 (stereo not shown) [Compound I-16, (3-([1,2,4]triazolo[1,5-a]pyridin-7-yl)-1a,2,3,7b-tetrahydro-1H-cyclopropa[c][1,8]naphthyridin-6-yl)(4,4-difluoropiperidin-1-yl)methanone] | 8.27 | 3.7
O=C(c1cnc2c(c1)C1CC1CN2c1ccn2cnnc2c1)N1CCC(F)(F)CC1 (stereo not shown) [Compound I-17, (3-([1,2,4]triazolo[4,3-a]pyridin-7-yl)-1a,2,3,7b-tetrahydro-1H-cyclopropa[c][1,8]naphthyridin-6-yl)(4,4-difluoropiperidin-1-yl)methanone] | 8.35 | 2.2
CN1Cc2cc(N3CC4CC4c4cc(C(=O)N5CCC(F)(F)CC5)cnc43)ncc2C1=O (stereo not shown) [Compound I-18, 6-(6-(4,4-difluoropiperidine-1-carbonyl)-1,1a,2,7b-tetrahydro-3H-cyclopropa[c][1,8]naphthyridin-3-yl)-2-methyl-1,2-dihydro-3H-pyrrolo[3,4-c]pyridin-3-one] | 7.70 | –
CN1C(=O)c2ncc(N3CC4CC4c4cc(C(=O)N5CCC(F)(F)CC5)cnc43)cc2C12CC2 (stereo not shown) [Compound I-19, 3′-(6-(4,4-difluoropiperidine-1-carbonyl)-1,1a,2,7b-tetrahydro-3H-cyclopropa[c][1,8]naphthyridin-3-yl)-6′-methylspiro[cyclopropane-1,5′-pyrrolo[3,4-b]pyridin]-7′(6′H)-one] | 8.43 | 4.72
Cn1nc2cc(N3CC4CC4c4cc(C(=O)N5CC(C)(F)C5)cnc43)ccn2c1=O (stereo not shown) [Compound I-20, 7-(6-(3-fluoro-3-methylazetidine-1-carbonyl)-1a,2-dihydro-1H-cyclopropa[c][1,8]naphthyridin-3(7bH)-yl)-2-methyl-[1,2,4]triazolo[4,3-a]pyridin-3(2H)-one] | 8.55 | 2.0
Cn1nc2cc(N3CC4CC4c4cc(C(=O)N5CCC(F)(F)C5)cnc43)ccn2c1=O (stereo not shown) [Compound I-21, 7-(6-(3,3-difluoropyrrolidine-1-carbonyl)-1,1a,2,7b-tetrahydro-3H-cyclopropa[c][1,8]naphthyridin-3-yl)-2-methyl-[1,2,4]triazolo[4,3-a]pyridin-3(2H)-one] | 8.31 | 2.3
Cn1nc2cc(N3CC4CC4c4cc(C(=O)N5CCOCC5)cnc43)ccn2c1=O (stereo not shown) [Compound I-22, 2-methyl-7-(6-(morpholine-4-carbonyl)-1,1a,2,7b-tetrahydro-3H-cyclopropa[c][1,8]naphthyridin-3-yl)-[1,2,4]triazolo[4,3-a]pyridin-3(2H)-one] | 7.99 | –
Cn1nc2cc(N3CC4CC4c4cc(C(=O)N5CCCC(C(F)F)C5)cnc43)ccn2c1=O (stereo not shown) [Compound I-23, 7-(6-(3-(difluoromethyl)piperidine-1-carbonyl)-1,1a,2,7b-tetrahydro-3H-cyclopropa[c][1,8]naphthyridin-3-yl)-2-methyl-[1,2,4]triazolo[4,3-a]pyridin-3(2H)-one] | 8.37 | 2.93
Cn1nc2cc(N3CC4CC4c4cc(C(=O)N5CCCC(F)(F)C5)cnc43)ccn2c1=O (stereo not shown) [Compound I-24, 7-(6-(3,3-difluoropiperidine-1-carbonyl)-1,1a,2,7b-tetrahydro-3H-cyclopropa[c][1,8]naphthyridin-3-yl)-2-methyl-[1,2,4]triazolo[4,3-a]pyridin-3(2H)-one] | 8.37 | 2.95
[2H]C([2H])([2H])n1nc2cc(N3CC4CC4c4cc(C(=O)N5CCC(F)(F)CC5)cnc43)ccn2c1=O (stereo not shown) [Compound I-25, 7-(6-(4,4-difluoropiperidine-1-carbonyl)-1,1a,2,7b-tetrahydro-3H-cyclopropa[c][1,8]naphthyridin-3-yl)-2-(methyl-d3)-[1,2,4]triazolo[4,3-a]pyridin-3(2H)-one] | 8.59 | –
Cn1nc2cc(N3CC4CC4c4cc(C(=O)N5CCCC(C(F)(F)F)C5)cnc43)ccn2c1=O (stereo not shown) [Compound I-26, 2-methyl-7-(6-(3-(trifluoromethyl)piperidine-1-carbonyl)-1,1a,2,7b-tetrahydro-3H-cyclopropa[c] [1,8]naphthyridin-3-yl)-[1,2,4]triazolo[4,3-a]pyridin-3(2H)-one] | 8.00 | 4.82
Cn1nc2cc(N3CC4CC4c4cc(C(=O)N5CCCC(F)C5)cnc43)ccn2c1=O (stereo not shown) [Compound I-27, 7-(6-(3-fluoropiperidine-1-carbonyl)-1,1a,2,7b-tetrahydro-3H-cyclopropa[c][1,8]naphthyridin-3-yl)-2-methyl-[1,2,4]triazolo[4,3-a]pyridin-3(2H)-one] | 8.24 | 2.60
Cn1nc2cc(N3CC4CC4c4cc(C(=O)N5CC6CC6C5)cnc43)ccn2c1=O (stereo not shown) [Compound I-29, 7-(6-(3-azabicyclo[3.1.0]hexane-3-carbonyl)-1,1a,2,7b-tetrahydro-3H-cyclopropa[c][1,8]naphthyridin-3-yl)-2-methyl-[1,2,4]triazolo[4,3-a]pyridin-3(2H)-one] | 8.28 | 2.3
